This note sets out measurements from PubChem BioAssay AID1259407 (Chemical Carcinogenesis Research Information System (CCRIS), 2018).

This series deals with CCRIS mutagenicity, Ames/micronucleus/aberration tests. Nature of the series: CCRIS mutagenicity studies.
Setting [1] is: Test System: AMES SALMONELLA TYPHIMURIUM, Strain/Indicator: TA100, Metabolic Activation: NONE, Method: STANDARD PLATE.

Activity calls are given as the source filed them. No rule for the calls is given here.

For `COc1cc2c3c(c1O)-c1cc4c(cc1C[C@@H]3N(C)CC2)OCO4`, under “Test System: AMES SALMONELLA TYPHIMURIUM, Strain/Indicator: TA100, Metabolic Activation: RAT, LIVER, S-9, PHENOBARBITAL AND BETA-NAPHTHOFLAVONE, Method: PREINCUBATION”, the mutagenic call is “inactive; negative”.

For the molecule `CCN(N)c1ccccc1`, the mutagenic call under setting [1] is “active; positive”; the mutagenic call (Test System: AMES SALMONELLA TYPHIMURIUM, Strain/Indicator: TA100, Metabolic Activation: RAT, LIVER, S-9, AROCLOR 1254, Method: STANDARD PLATE) was “inactive; negative”; the mutagenic call (Test System: AMES SALMONELLA TYPHIMURIUM, Strain/Indicator: TA102, Metabolic Activation: NONE, Method: STANDARD PLATE) was “inactive; negative”; the mutagenic call (Test System: AMES SALMONELLA TYPHIMURIUM, Strain/Indicator: TA102, Metabolic Activation: RAT, LIVER, S-9, AROCLOR 1254, Method: STANDARD PLATE) was “active; positive”.

In the case of `C[N+](=O)[O-]`, the mutagenic call reads like this: (Test System: AMES SALMONELLA TYPHIMURIUM, Strain/Indicator: TA98, Metabolic Activation: HAMSTER, LIVER, S-9, AROCLOR 1254 (10%), Method: PREINCUBATION) “inactive; negative”; (Test System: AMES SALMONELLA TYPHIMURIUM, Strain/Indicator: TA98, Metabolic Activation: HAMSTER, LIVER, S-9, AROCLOR 1254, FLAVIN MONONUCLEOTIDE, Method: PREINCUBATION) “inactive; negative”; (Test System: AMES SALMONELLA TYPHIMURIUM, Strain/Indicator: TA98, Metabolic Activation: NONE, Method: PREINCUBATION) “inactive; negative”; (Test System: AMES SALMONELLA TYPHIMURIUM, Strain/Indicator: TA98, Metabolic Activation: RAT, LIVER, S-9, AROCLOR 1254 (10%), Method: PREINCUBATION) “inactive; negative”; (Test System: AMES SALMONELLA TYPHIMURIUM, Strain/Indicator: TA98, Metabolic Activation: RAT, LIVER, S-9, KANECHLOR 500, Method: PREINCUBATION) “inactive; negative”; (Test System: AMES SALMONELLA TYPHIMURIUM, Strain/Indicator: TA100, Metabolic Activation: HAMSTER, LIVER, S-9, AROCLOR 1254 (10%), Method: PREINCUBATION) “inactive; negative”. In addition, the mutagenic call was “inactive; negative” (Test System: AMES SALMONELLA TYPHIMURIUM, Strain/Indicator: TA100, Metabolic Activation: HAMSTER, LIVER, S-9, AROCLOR 1254, FLAVIN MONONUCLEOTIDE, Method: PREINCUBATION); “inactive; negative” (Test System: AMES SALMONELLA TYPHIMURIUM, Strain/Indicator: TA100, Metabolic Activation: NONE, Method: PREINCUBATION); “inactive; negative” (Test System: AMES SALMONELLA TYPHIMURIUM, Strain/Indicator: TA100, Metabolic Activation: RAT, LIVER, S-9, AROCLOR 1254 (10%), Method: PREINCUBATION); “inactive; negative” (Test System: AMES SALMONELLA TYPHIMURIUM, Strain/Indicator: TA100, Metabolic Activation: RAT, LIVER, S-9, KANECHLOR 500, Method: PREINCUBATION); “inactive; negative” (Test System: AMES SALMONELLA TYPHIMURIUM, Strain/Indicator: TA1535, Metabolic Activation: HAMSTER, LIVER, S-9, AROCLOR 1254 (10%), Method: PREINCUBATION); “inactive; negative” (Test System: AMES SALMONELLA TYPHIMURIUM, Strain/Indicator: TA1535, Metabolic Activation: NONE, Method: PREINCUBATION). Moreover, the mutagenic call is “inactive; negative” (Test System: AMES SALMONELLA TYPHIMURIUM, Strain/Indicator: TA1535, Metabolic Activation: RAT, LIVER, S-9, AROCLOR 1254 (10%), Method: PREINCUBATION); “inactive; negative” (Test System: AMES SALMONELLA TYPHIMURIUM, Strain/Indicator: TA1537, Metabolic Activation: HAMSTER, LIVER, S-9, AROCLOR 1254 (10%), Method: PREINCUBATION); “inactive; negative” (Test System: AMES SALMONELLA TYPHIMURIUM, Strain/Indicator: TA1537, Metabolic Activation: NONE, Method: PREINCUBATION); “inactive; negative” (Test System: AMES SALMONELLA TYPHIMURIUM, Strain/Indicator: TA1537, Metabolic Activation: RAT, LIVER, S-9, AROCLOR 1254 (10%), Method: PREINCUBATION); “inactive; negative” (Test System: E. COLI, Strain/Indicator: WP2 UVRA (PKM101), Metabolic Activation: NONE, Method: PREINCUBATION); “inactive; negative” (Test System: E. COLI, Strain/Indicator: WP2 UVRA (PKM101), Metabolic Activation: RAT, LIVER, S-9, KANECHLOR 500, Method: PREINCUBATION). Besides, the mutagenic call (Test System: MOUSE LYMPHOMA, Strain/Indicator: L5178Y (TK+/TK-), Metabolic Activation: NONE, Method: SUSPENSION/PLATE) was “active; positive. reevaluation of results: equivocal” and the mutagenic call (Test System: Mouse lymphoma, Strain/Indicator: L5178Y (tk+/tk-), Metabolic Activation: Rat, Liver, S-9, Aroclor 1254, Method: Suspension/plate) was “inactive; negative”.

As for `O=C(O)c1ccccc1C1=c2cc3c4c(c2Oc2c1cc1c5c2CCCN5CCC1)CCC[N+]=4CCC3`, the mutagenic call (Test System: AMES SALMONELLA TYPHIMURIUM, Strain/Indicator: TA1538, Metabolic Activation: NONE, Method: STANDARD PLATE) is “inactive; negative” and the mutagenic call (Test System: AMES SALMONELLA TYPHIMURIUM, Strain/Indicator: TA1538, Metabolic Activation: RAT, LIVER, S-9, AROCLOR 1254, Method: STANDARD PLATE) was “inactive; negative”.

`CCc1cccc2c(CCO)c[nH]c12`: the mutagenic call (Test System: AMES SALMONELLA TYPHIMURIUM, Strain/Indicator: TA98, Metabolic Activation: NONE, Method: STANDARD PLATE) is “inactive; negative”; the mutagenic call (Test System: AMES SALMONELLA TYPHIMURIUM, Strain/Indicator: TA98, Metabolic Activation: RAT, LIVER, S-9, Method: STANDARD PLATE) is “inactive; negative”; the mutagenic call under setting [1] is “inactive; negative”; the mutagenic call (Test System: AMES SALMONELLA TYPHIMURIUM, Strain/Indicator: TA100, Metabolic Activation: RAT, LIVER, S-9, Method: STANDARD PLATE) is “inactive; negative”; the mutagenic call (Test System: AMES SALMONELLA TYPHIMURIUM, Strain/Indicator: TA1535, Metabolic Activation: NONE, Method: STANDARD PLATE) was “inactive; negative”; the mutagenic call (Test System: AMES SALMONELLA TYPHIMURIUM, Strain/Indicator: TA1535, Metabolic Activation: RAT, LIVER, S-9, Method: STANDARD PLATE) was “inactive; negative”. Besides, the mutagenic call is, setting by setting: (Test System: AMES SALMONELLA TYPHIMURIUM, Strain/Indicator: TA1537, Metabolic Activation: NONE, Method: STANDARD PLATE) “inactive; negative”; (Test System: AMES SALMONELLA TYPHIMURIUM, Strain/Indicator: TA1537, Metabolic Activation: RAT, LIVER, S-9, Method: STANDARD PLATE) “inactive; negative”; (Test System: E. COLI, Strain/Indicator: WP2 UVRA, Metabolic Activation: NONE, Method: STANDARD PLATE) “inactive; negative”; (Test System: E. COLI, Strain/Indicator: WP2 UVRA, Metabolic Activation: RAT, LIVER, S-9, Method: STANDARD PLATE) “inactive; negative”.

With `N#Cc1nn(-c2c(Cl)cc(C(F)(F)F)cc2Cl)c(N)c1S(=O)C(F)(F)F` (stereo not given), the mutagenic call runs as follows: (End Point: Ames Salmonella typhimurium, Test System: TA98, Metabolic Activation: None, Method: Plate incorporation) “inactive; negative”; (End Point: Ames Salmonella typhimurium, Test System: TA98, Metabolic Activation: Rat, Liver, S-9, Aroclor 1254, Method: Plate incorporation) “inactive; negative”; (End Point: Ames Salmonella typhimurium, Test System: TA100, Metabolic Activation: None, Method: Plate incorporation) “inactive; negative”; (End Point: Ames Salmonella typhimurium, Test System: TA100, Metabolic Activation: Rat, Liver, S-9, Aroclor 1254, Method: Plate incorporation) “inactive; negative”; (End Point: Ames Salmonella typhimurium, Test System: TA1535, Metabolic Activation: None, Method: Plate incorporation) “inactive; negative”; (End Point: Ames Salmonella typhimurium, Test System: TA1535, Metabolic Activation: Rat, Liver, S-9, Aroclor 1254, Method: Plate incorporation) “inactive; negative”. In addition, the mutagenic call reads like this: (End Point: Ames Salmonella typhimurium, Test System: TA1537, Metabolic Activation: None, Method: Plate incorporation) “inactive; negative”; (End Point: Ames Salmonella typhimurium, Test System: TA1537, Metabolic Activation: Rat, Liver, S-9, Aroclor 1254, Method: Plate incorporation) “inactive; negative”; (End Point: In vitro chromosomal aberrations, Test System: Human lymphocytes (male and female), Metabolic Activation: None) “inactive; negative”; (End Point: In vitro chromosomal aberrations, Test System: Human lymphocytes (male and female), Metabolic Activation: Rat, Liver, S-9, Aroclor 1254) “inactive; negative”; (End Point: In vivo micronucleus, Test System: Bone marrow polychromatic erythrocytes, Species: Mouse, Strain/Sex: CD-1/Male and female, Route: Oral) “inactive; negative”; (Test System: HGPRT mutations, Strain/Indicator: Chinese hamster V79 cells, Metabolic Activation: None) “inactive; negative”. For the setting “Test System: HGPRT mutations, Strain/Indicator: Chinese hamster V79 cells, Metabolic Activation: Rat, Liver, S-9, Aroclor 1254”, the mutagenic call was “inactive; negative”.
